From ChEMBL document CHEMBL5726715 (2018)

Molecular target: T1, 3-phosphoinositide-dependent protein kinase 1 (Homo sapiens, UniProt O15530)
T1 sequence (O15530 whole entry): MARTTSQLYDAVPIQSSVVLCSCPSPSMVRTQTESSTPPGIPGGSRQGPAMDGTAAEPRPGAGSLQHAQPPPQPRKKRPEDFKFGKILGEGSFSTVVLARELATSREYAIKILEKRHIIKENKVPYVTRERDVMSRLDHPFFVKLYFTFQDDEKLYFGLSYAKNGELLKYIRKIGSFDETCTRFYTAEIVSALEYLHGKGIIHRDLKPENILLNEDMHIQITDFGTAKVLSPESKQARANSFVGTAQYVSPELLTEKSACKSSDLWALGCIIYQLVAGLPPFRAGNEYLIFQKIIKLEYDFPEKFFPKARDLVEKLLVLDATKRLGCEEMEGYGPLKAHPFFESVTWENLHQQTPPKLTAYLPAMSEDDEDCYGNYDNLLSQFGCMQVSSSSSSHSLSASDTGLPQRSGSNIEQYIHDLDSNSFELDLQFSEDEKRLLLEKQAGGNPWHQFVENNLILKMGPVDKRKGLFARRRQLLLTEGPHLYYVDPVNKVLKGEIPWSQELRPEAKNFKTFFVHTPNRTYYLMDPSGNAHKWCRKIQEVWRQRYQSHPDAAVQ
Experiment: Kinase Assay: A PDK1 kinase assay was performed as follows. […] PDK1 protein was divided into two fractions, one of which was subsequently dephosphorylated. To generate dephosphorylated PDK1, the PDK1 was reacted with GST-tagged lambda-phosphatase in vitro. GST was subsequently cleaved proteolytically for both phosphorylated and dephosphorylated PDK1. Protein preparations were run on glutathione Sepharose columns to remove GST and GST-tagged lambda-phosphatase, if present. […] Enzyme activity was determined in a coupled PDK1/AKT/FAM-crosstide assay using either phosphorylated or unphosphorylated PDK1 and phosphorylation of FAM-crosstide was determined by standard IMAP protocol (Molecular Devices). For inhibition studies, compounds were titrated 3-fold in DMSO and diluted 40-fold into assay buffer (10 mM Tris HCl pH7.2; 10 mM MgCl2; 0.01% Triton X-100; 1 mM DTT) containing PDK1, AKT2, and FAM-crosstide. […] To detect assay product, the kinase reaction was combined with Progressive Binding Solution (1:600 Progressive Binding Reagent, 50% Buffer A, 50% Buffer B, Molecular Devices) in a 1:3 ratio.

Compound: C[C@H](COc1ccc2[nH]c(=O)[nH]c2c1)NC(=O)c1cccn(Cc2cc(F)c(F)c(F)c2)c1=O
- IC50: < 500 nM

Compound: O=C(NCc1cncc(-c2c[nH]c3ncccc23)c1)c1cccn(Cc2ccc(F)c(F)c2)c1=O
- IC50: < 500 nM

Compound: O=C(NC/C=C/c1ccc2[nH]c(=O)[nH]c2c1)c1cccn(Cc2cc(F)c(F)c(F)c2)c1=O
- IC50: < 500 nM

Compound: O=C(NCc1cccc(-c2c[nH]c3ncccc23)c1)c1cccn(Cc2ccc(C(F)(F)F)cc2)c1=O
- IC50: < 500 nM

Compound: Nc1ncnc2ccc(-c3ccc(CNC(=O)c4cccn(Cc5ccc(F)c(F)c5)c4=O)s3)cc12
- IC50: < 500 nM

Compound: O=C(NCc1ccc(OCCN2CCOCC2)c(-c2c[nH]c3ncccc23)c1)c1cccn(Cc2ccc(F)c(F)c2)c1=O
- IC50: < 500 nM

Compound: NC(=O)COc1cc(CNC(=O)c2cccn(Cc3ccc(F)c(F)c3)c2=O)cc(-c2c[nH]c3ncccc23)c1
- IC50: < 500 nM

Compound: O=C(NCc1cccc(-c2c[nH]c3nccc(F)c23)c1)c1cccn(Cc2ccc(F)c(F)c2)c1=O
- IC50: < 500 nM

Compound: C=C[C@H](COc1ccc2[nH]c(=O)[nH]c2c1)NC(=O)c1cccn(Cc2cc(F)c(F)c(F)c2)c1=O
- IC50: < 500 nM

Compound: NC(=O)c1cc(-c2cccc(CNC(=O)c3cccn(Cc4ccc(F)c(F)c4)c3=O)c2)c[nH]1
- IC50: < 500 nM

Compound: O=C(NCc1noc(-c2c[nH]c3ncccc23)n1)c1cc(Cl)cn(Cc2ccc(C(F)(F)F)cc2)c1=O
- IC50: < 500 nM

Compound: Cc1[nH]c2ncccc2c1-c1cccc(CNC(=O)c2cccn(Cc3ccc(F)c(F)c3)c2=O)c1
- IC50: < 500 nM

Compound: O=C(N[C@@H](COc1ccc2[nH]c(=O)[nH]c2c1)C1CC1)c1cccn(Cc2cc(F)c(F)c(F)c2)c1=O
- IC50: < 500 nM

Compound: O=C(Nc1ccnc2ccc(-c3c[nH]c4ncccc34)cc12)c1cccn(Cc2ccc(F)c(F)c2)c1=O
- IC50: < 500 nM

Compound: O=C(NCc1cc(OC2CCCC2)cc(-c2c[nH]c3ncccc23)c1)c1cccn(Cc2ccc(F)c(F)c2)c1=O
- IC50: < 500 nM

Compound: Cn1nc(NC(=O)c2cccn(Cc3ccc(F)c(F)c3)c2=O)c2cc(-c3c[nH]c4ncccc34)ccc21
- IC50: < 500 nM

Compound: CN(C)C(=O)COc1cc(CNC(=O)c2cccn(Cc3ccc(F)c(F)c3)c2=O)cc(-c2c[nH]c3ncccc23)c1
- IC50: < 500 nM

Compound: NC(=O)[C@H](COc1ccc2[nH]c(=O)[nH]c2c1)NC(=O)c1cccn(Cc2cc(F)c(F)c(F)c2)c1=O
- IC50: < 500 nM

Compound: O=C(O)Cn1nc(NC(=O)c2cccn(Cc3ccc(F)c(F)c3)c2=O)c2cc(-c3c[nH]c4ncccc34)ccc21
- IC50: < 500 nM

Compound: Nc1ncnc2ccc(-c3cccc(CNC(=O)c4cccn(Cc5ccc(F)c(F)c5)c4=O)c3)cc12
- IC50: < 500 nM

Compound: O=C(NCc1cc(-c2c[nH]c3ncccc23)ccc1O)c1cccn(Cc2ccc(F)c(F)c2)c1=O
- IC50: < 500 nM

Compound: COc1ccc(CNC(=O)c2cccn(Cc3ccc(F)c(F)c3)c2=O)cc1-c1c[nH]c2ncccc12
- IC50: < 500 nM

Compound: CN1CCC(Oc2cc(CNC(=O)c3cccn(Cc4ccc(F)c(F)c4)c3=O)cc(-c3c[nH]c4ncccc34)c2)CC1
- IC50: < 500 nM

Compound: O=C(O)c1cc(-c2c[nH]c3ncccc23)cc(CNC(=O)c2cccn(Cc3ccc(F)c(F)c3)c2=O)n1
- IC50: < 500 nM

Compound: O=C(NCc1ccc(O)c(-c2c[nH]c3ncccc23)c1)c1cccn(Cc2ccc(F)c(F)c2)c1=O
- IC50: < 500 nM

Compound: CC(=O)NC[C@@H](NC(=O)c1cccn(Cc2ccc(F)c(F)c2)c1=O)c1nc(-c2c[nH]c3ncccc23)cs1
- IC50: < 500 nM

Compound: CC(C)(C)OC(=O)N1CCC(Oc2cc(CNC(=O)c3cccn(Cc4ccc(F)c(F)c4)c3=O)cc(-c3c[nH]c4ncccc34)c2)CC1
- IC50: < 500 nM

Compound: O=C(NCc1cc(OC2CCCCC2)cc(-c2c[nH]c3ncccc23)c1)c1cccn(Cc2ccc(F)c(F)c2)c1=O
- IC50: < 500 nM

Compound: COc1cnc2[nH]cc(-c3cccc(CNC(=O)c4cccn(Cc5ccc(F)c(F)c5)c4=O)c3)c2c1
- IC50: < 500 nM

Compound: O=C(NC1CC1)c1cnc2[nH]cc(-c3cccc(CNC(=O)c4cccn(Cc5ccc(F)c(F)c5)c4=O)c3)c2c1
- IC50: < 500 nM

Compound: O=C(NCc1cc(-c2c[nH]c3ncccc23)cc[n+]1[O-])c1cccn(Cc2ccc(F)c(F)c2)c1=O
- IC50: < 500 nM

Compound: O=C(NCc1cccc(-c2c[nH]c3ncc(O)cc23)c1)c1cccn(Cc2ccc(F)c(F)c2)c1=O
- IC50: < 500 nM

Compound: CCn1nc(NC(=O)c2cccn(Cc3ccc(F)c(F)c3)c2=O)c2cc(-c3c[nH]c4ncccc34)ccc21
- IC50: < 500 nM

Compound: O=C(NCc1cc(OC2CCNCC2)cc(-c2c[nH]c3ncccc23)c1)c1cccn(Cc2ccc(F)c(F)c2)c1=O
- IC50: < 500 nM

Compound: O=C(NCc1cc(OS(=O)(=O)c2ccccc2)cc(-c2c[nH]c3ncccc23)c1)c1cccn(Cc2ccc(F)c(F)c2)c1=O
- IC50: < 500 nM

Compound: O=C(NCc1cccc(-c2c[nH]c(C(=O)N3CCOCC3)c2)c1)c1cccn(Cc2ccc(F)c(F)c2)c1=O
- IC50: < 500 nM

Compound: COc1ccc(-c2c[nH]c3ncccc23)cc1CNC(=O)c1cccn(Cc2ccc(F)c(F)c2)c1=O
- IC50: < 500 nM

Compound: O=C(NCCOc1ccc2[nH]c(=O)[nH]c2c1F)c1cccn(Cc2ccc(F)c(F)c2)c1=O
- IC50: < 500 nM

Compound: O=C(NCc1cccc(-c2c[nH]c3ncc(C(=O)N4CCOCC4)cc23)c1)c1cccn(Cc2ccc(F)c(F)c2)c1=O
- IC50: < 500 nM

Compound: COc1cnc2[nH]cc(-c3ccc(CNC(=O)c4cccn(Cc5ccc(F)c(F)c5)c4=O)s3)c2c1
- IC50: < 500 nM

Compound: CS(=O)(=O)N1CCC(Oc2cc(CNC(=O)c3cccn(Cc4ccc(F)c(F)c4)c3=O)cc(-c3c[nH]c4ncccc34)c2)CC1
- IC50: < 500 nM

Compound: CNC(=O)c1cc(-c2cccc(CNC(=O)c3cccn(Cc4ccc(F)c(F)c4)c3=O)c2)c[nH]1
- IC50: < 500 nM

Compound: O=C(NCc1cccc(-c2c[nH]c3ncc(C(=O)N4CCNCC4)cc23)c1)c1cccn(Cc2ccc(F)c(F)c2)c1=O
- IC50: < 500 nM

Compound: O=C(NCc1noc(-c2c[nH]c3ncccc23)n1)c1cccn(Cc2cc(F)c(F)c(F)c2)c1=O
- IC50: < 500 nM

Compound: O=C(N[C@@H](COc1ccc2[nH]c(=O)[nH]c2c1)c1ccccc1Cl)c1cccn(Cc2cc(F)c(F)c(F)c2)c1=O
- IC50: < 500 nM

Compound: O=C(NCc1coc(-c2c[nH]c3ncccc23)n1)c1cccn(Cc2ccc(F)c(F)c2)c1=O
- IC50: < 500 nM

Compound: O=C(NCc1noc(-c2c[nH]c3ncccc23)n1)c1cccn(Cc2ccc(F)c(F)c2)c1=O
- IC50: < 500 nM

Compound: O=C(NCc1cccc(-c2c[nH]c3ncc(C(F)(F)F)cc23)c1)c1cccn(Cc2ccc(F)c(F)c2)c1=O
- IC50: < 500 nM

Compound: CC(C)Oc1cc(CNC(=O)c2cccn(Cc3cc(F)c(F)c(F)c3)c2=O)cc(-c2c[nH]c3ncccc23)c1
- IC50: < 500 nM

Compound: O=C(NCc1cc(OCC(O)CO)cc(-c2c[nH]c3ncccc23)c1)c1cccn(Cc2ccc(F)c(F)c2)c1=O (configuration not stated)
- IC50: < 500 nM

Compound: NC(=O)c1cc(-c2c[nH]c3ncccc23)cc(CNC(=O)c2cccn(Cc3ccc(F)c(F)c3)c2=O)n1
- IC50: < 500 nM

Compound: CC(c1ccc(C(F)(F)F)cc1)n1cccc(C(=O)NCc2noc(-c3c[nH]c4ncccc34)n2)c1=O (configuration not stated)
- IC50: < 500 nM
